Source: US12275745B2, “Therapeutic compounds and methods of use” (Genentech, Inc., priority 2021, dated 2025)

How the values were obtained:
TEAD1 = TEAD1 (Homo sapiens, UniProt P28347); test: TR-FRET (Lipid HTRF) TEAD lipid pocket probe displacement assay, TEAD1; assay type: binding; conditions: His-tagged TEAD1, biotinylated lipid pocket probe, 4 hours
Protocol: (§1) His-tagged TEAD proteins are pre-incubated with TEAD project compounds for 30 minutes or 4 hours at room temperature. Biotinylated lipid pocket probes are then added to the TEAD/Compound mixture and incubated for 60 minutes at room temperature. The lipid pocket probe competes with the test compound for the TEAD lipid pocket until equilibrium is reached. After 60 minutes, Europium labelled anti-His (Perkin Elmer #AD0110) and XL665 labelled streptavidin (CIS Bio 610SAXAC) are added to the TEAD/test compound/lipid pocket mixture and incubated for 30 minutes or 4 hours. TR-FRET values are then measured using an EnVision multi-label plate reader (Perkin Elmer Cat #2104-001 0A.) If the lipid pocket probe binds to TEAD as expected, a TR-FRET signal results from the proximity of anti-His Eu and XL665. If a TEAD lipid pocket binder such as binds and displaces the lipid pocket probe, the disruption of the TEAD:probe interaction results in a decrease in TR-FRET signal. The potency of compounds as TEAD lipid pocket binders is determined by IC50 value generated using a non-linear 4 parameter curve fit.

TEAD3 = TEAD3 (Homo sapiens, UniProt Q99594); test: TR-FRET (Lipid HTRF) TEAD lipid pocket probe displacement assay, TEAD3; assay type: binding; conditions: His-tagged TEAD3, biotinylated lipid pocket probe, 4 hours
Sequence of TEAD3 (Q99594 whole entry, species assumed): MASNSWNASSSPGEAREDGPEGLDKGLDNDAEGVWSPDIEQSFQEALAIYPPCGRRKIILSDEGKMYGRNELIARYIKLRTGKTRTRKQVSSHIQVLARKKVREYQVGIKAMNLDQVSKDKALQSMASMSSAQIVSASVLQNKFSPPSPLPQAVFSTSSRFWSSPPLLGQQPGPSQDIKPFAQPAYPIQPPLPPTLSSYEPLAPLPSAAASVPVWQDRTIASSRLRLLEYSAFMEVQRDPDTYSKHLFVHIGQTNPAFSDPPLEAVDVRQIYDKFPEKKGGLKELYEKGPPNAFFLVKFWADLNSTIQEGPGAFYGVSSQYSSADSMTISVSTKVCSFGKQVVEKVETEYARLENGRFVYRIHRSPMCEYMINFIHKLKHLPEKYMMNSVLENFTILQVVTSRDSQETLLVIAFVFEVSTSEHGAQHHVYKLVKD
Protocol: as §1

TEAD4 = TEAD4 (Homo sapiens, UniProt Q15561); test: TR-FRET (Lipid HTRF) TEAD lipid pocket probe displacement assay, TEAD4; assay type: binding; conditions: His-tagged TEAD4, biotinylated lipid pocket probe, 4 hours
Sequence of TEAD4 (Q15561 whole entry, species assumed): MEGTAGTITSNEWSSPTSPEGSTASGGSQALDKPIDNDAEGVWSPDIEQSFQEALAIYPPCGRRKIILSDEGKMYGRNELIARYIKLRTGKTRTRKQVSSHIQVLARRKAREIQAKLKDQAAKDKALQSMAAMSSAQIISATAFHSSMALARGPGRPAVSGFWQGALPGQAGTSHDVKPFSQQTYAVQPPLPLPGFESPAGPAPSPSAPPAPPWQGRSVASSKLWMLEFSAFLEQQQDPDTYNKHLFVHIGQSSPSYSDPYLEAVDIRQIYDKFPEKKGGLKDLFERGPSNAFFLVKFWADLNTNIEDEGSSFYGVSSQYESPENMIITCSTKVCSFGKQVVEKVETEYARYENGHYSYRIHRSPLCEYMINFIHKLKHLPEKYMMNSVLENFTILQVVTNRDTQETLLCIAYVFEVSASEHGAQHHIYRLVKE
Protocol: as §1

TEAD2 = TEAD2 (Homo sapiens, UniProt Q15562); test: biochemical;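 note: TR-FRET competition assay with His-tagged TEAD protein and a biotinylated lipid pocket probe, where probe displacement by compound lowers the signal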
Sequence of TEAD2 (Q15562 whole entry, species assumed): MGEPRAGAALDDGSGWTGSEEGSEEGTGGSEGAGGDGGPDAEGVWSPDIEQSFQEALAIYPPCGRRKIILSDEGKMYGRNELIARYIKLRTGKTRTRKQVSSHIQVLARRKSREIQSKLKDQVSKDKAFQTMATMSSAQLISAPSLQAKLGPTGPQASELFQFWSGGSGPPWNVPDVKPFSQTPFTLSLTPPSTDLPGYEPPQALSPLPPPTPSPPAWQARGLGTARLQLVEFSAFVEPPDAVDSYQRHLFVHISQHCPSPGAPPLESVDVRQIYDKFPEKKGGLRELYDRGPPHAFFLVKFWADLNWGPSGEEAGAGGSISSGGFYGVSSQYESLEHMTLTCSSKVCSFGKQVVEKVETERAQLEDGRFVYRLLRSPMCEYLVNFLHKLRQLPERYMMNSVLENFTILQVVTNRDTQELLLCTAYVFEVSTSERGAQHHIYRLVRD
Protocol: as §1

Sequence of TEAD1 (P28347 whole entry, species assumed): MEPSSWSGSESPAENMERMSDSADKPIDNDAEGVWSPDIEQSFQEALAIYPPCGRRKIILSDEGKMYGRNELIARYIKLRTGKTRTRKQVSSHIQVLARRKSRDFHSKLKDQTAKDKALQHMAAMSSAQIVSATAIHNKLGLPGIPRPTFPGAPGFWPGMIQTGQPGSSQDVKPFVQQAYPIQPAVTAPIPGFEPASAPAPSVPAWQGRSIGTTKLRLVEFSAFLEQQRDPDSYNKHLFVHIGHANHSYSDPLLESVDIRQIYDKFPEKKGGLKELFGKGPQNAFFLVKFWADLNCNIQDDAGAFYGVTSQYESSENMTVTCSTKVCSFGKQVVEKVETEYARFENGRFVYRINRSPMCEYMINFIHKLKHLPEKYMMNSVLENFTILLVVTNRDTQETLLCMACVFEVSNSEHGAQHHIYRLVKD

| Compound | IC50 (TEAD1) [nM] | IC50 (TEAD3) [nM] | IC50 (TEAD4) [nM] | IC50 (TEAD2) [nM] |
| --- | --- | --- | --- | --- |
| C=CC(=O)N(C)Cc1cc(-c2ccc(OC(F)(F)F)cc2)c2c(c1[C@H](O)CO)CCO2 (single isomer, unassigned) [Compound 55] | 20 | 240 | 7.2 | 4.4 |
| C=CC(=O)N(C)Cc1cc(-c2ccc(OC(F)(F)F)cc2)c2c(c1[C@@H](O)CO)CCO2 (single isomer, unassigned) [Compound 56] | 48 | 99 | 13 | 35 |
| C=CC(=O)NCc1cc(-c2ccc(OC(F)(F)F)cc2)c2c(c1[C@H](O)CC#N)CCO2 (single isomer, unassigned) [Compound 91] | 140 | 11000 | 63 | 34 |
| C=CC(=O)NCc1cc(-c2ccc(OC(F)(F)F)cc2)c2c(c1[C@@H](O)CC#N)CCO2 (single isomer, unassigned) [Compound 92] | 760 | 1600 | 340 | 16 |
| C=CC(=O)N(C)Cc1cc(-c2ccc(OC(F)(F)F)cc2)c2ncoc2c1[C@H](O)CO (single isomer, unassigned) [Compound 107] | 100 | 780 | 36 | 20 |
| C=CC(=O)N(C)Cc1cc(-c2ccc(OC(F)(F)F)cc2)c2ncoc2c1[C@@H](O)CO (single isomer, unassigned) [Compound 108] | 130 | 47 | 24 | 76 |
| C=CC(=O)NCc1cc(-c2ccc(C(F)(F)F)cc2)c2ncoc2c1[C@H](O)CO (single isomer, unassigned) [Compound 109] | 150 | 71 | 170 | 58 |
| C=CC(=O)NCc1cc(-c2ccc(C(F)(F)F)cc2)c2ncoc2c1[C@@H](O)CO (single isomer, unassigned) [Compound 110] | 140 | 970 | 260 | 47 |
| C=CC(=O)NCc1cc(Oc2ccc(C(F)(F)F)cc2)c2ncccc2c1[C@H](O)CO (single isomer, unassigned) [Compound 147] | 110 | 610 | 890 | 19 |
| C=CC(=O)NCc1cc(Oc2ccc(C(F)(F)F)cc2)c2ncccc2c1[C@@H](O)CO (single isomer, unassigned) [Compound 148] | 36 | 470 | 540 | 8.7 |
| C=CC(=O)NCc1cc(-c2ccc(S(F)(F)(F)(F)F)cc2)c2c(c1[C@H](O)CO)CCO2 (stereo in doubt) [Compound 96, N-[[7-[4-(Pentafluoro-6-sulfanyl)phenyl]-4-[rac-(1R)-l,2-dihydroxyethyl]-2,3-dihydrobenzofuran-5-yl]methyl]prop-2-enamide] | 43 | 72 | 23 | 33 |
| C=CC(=O)NCc1cc(-c2ccc(S(F)(F)(F)(F)F)cc2)c2c(c1[C@@H](O)CO)CCO2 (stereo in doubt) [Compound 97, N-[[7-[4-(pentafluoro-6-sulfanyl)phenyl]-4-[rac-(1S)-1,2-dihydroxyethyl]-2,3-dihydrobenzofuran-5-yl]methyl]prop-2-enamide] | 27 | 590 | 18 | 19 |
| C=CC(=O)NCc1cc(-c2ccc(OC(F)(F)F)cc2)c2c(c1-n1ccnc1)CCO2 [Compound 23, N-((4-(1H-Imidazol-1-yl)-7-(4-(trifluoromethoxy)phenyl)-2,3-dihydrobenzofuran-5-yl)methyl)acrylamide] | 690 | 3900 | 160 | 370 |
| C=CC(=O)NCc1cc(-c2ccc(S(F)(F)(F)(F)F)cc2)c2c(c1CO)CCO2 [Compound 24, N-((4-(Hydroxymethyl)-7-(4-(pentafluoro-16-sulfaneyl)phenyl)-2,3-dihydrobenzofuran-5-yl)methyl)acrylamide] | 32 | 39 | 27 | 120 |
| C=CC(=O)N(C)Cc1cc(-c2ccc(OC(F)(F)F)cc2)c2nccn2c1CO [Compound 36, N-[[5-(hydroxymethyl)-8-[4-(trifluoromethoxy)phenyl]imidazo[1,2-a]pyridin-6-yl]methyl]-N-methyl-prop-2-enamide] | 44 | 89 | 37 | 100 |

Further lines, results first:

| IC50 (TEAD1) [nM] | IC50 (TEAD3) [nM] | IC50 (TEAD4) [nM] | IC50 (TEAD2) [nM] | Compound |
| --- | --- | --- | --- | --- |
| 69 | 1800 | 240 | 15 | C=CC(=O)NCc1cc(-c2ccc(OC(F)(F)F)cc2)c2nccnc2c1[C@@H](C)O (single isomer, unassigned) [Compound 82] |
| 44 | 190 | 95 | 6 | C=CC(=O)NCc1cc(-c2ccc(OC(F)(F)F)cc2)c2nccnc2c1[C@H](C)O (single isomer, unassigned) [Compound 83] |
| 160 | 4800 | 150 | 34 | C=CC(=O)NCc1cc(-c2ccc(OC(F)(F)F)cc2)c2c(c1[C@H](O)[C@H](C)O)CCO2 (single isomer, unassigned) [Compound 89] |
| 170 | 400 | 63 | 29 | C=CC(=O)NCc1cc(-c2ccc(OC(F)(F)F)cc2)c2c(c1[C@@H](O)[C@@H](C)O)CCO2 (single isomer, unassigned) [Compound 90] |
| 130 | 74 | 90 | 30 | C=CC(=O)NCc1cc(-c2ccc(OC(F)(F)F)cc2)c2ncoc2c1[C@H](O)CO (single isomer, unassigned) [Compound 105] |
| 180 | 1000 | 180 | 24 | C=CC(=O)NCc1cc(-c2ccc(OC(F)(F)F)cc2)c2ncoc2c1[C@@H](O)CO (single isomer, unassigned) [Compound 106] |
| 60 | 3600 | 92 | 10 | C=CC(=O)NCc1cc(-c2ccc(OC(F)(F)F)cc2)c2ncn(C)c2c1[C@@H](C)O (single isomer, unassigned) [Compound 138] |
| 160 | 380 | 100 | 6.8 | C=CC(=O)NCc1cc(-c2ccc(OC(F)(F)F)cc2)c2ncn(C)c2c1[C@H](C)O (single isomer, unassigned) [Compound 139] |
| 127 | 290 | 270 | 227 | C=CC(=O)NCc1cc(-c2ccc(OC(F)(F)F)cc2)c2nccn2c1CO [Compound 5, N-((5-(hydroxymethyl)-8-(4-(trifluoromethoxy)phenyl)imidazo[1,2-a]pyridin-6-yl)methyl)acrylamide] |
| 18 | 230 | 40 | 640 | C=CC(=O)NCc1nc(-c2ccc(OC(F)(F)F)cc2)c2ccccc2n1 [Compound 7, N-((4-(4-(trifluoromethoxy)phenyl)quinazolin-2-yl)methyl)acrylamide] |
| 140 | 410 | 94 | 1300 | C=CC(=O)NCc1nc(-c2ccc(OC(F)(F)F)cc2)c2occc2n1 [Compound 10, N-[[4-[4-(trifluoromethoxy)phenyl]furo[3,2-d]pyrimidin-2-yl]methyl]prop-2-enamide] |
| 78 | 74 | 8.1 | 100 | C=CC(=O)N(C)Cc1nc(-c2ccc(OC(F)(F)F)cc2)c2ncsc2n1 [Compound 11, N-methyl-N-[[7-[4-(trifluoromethoxy)phenyl]thiazolo[5,4-d]pyrimidin-5-yl]methyl]prop-2-enamide] |
| 86 | 170 | 35 | 320 | C=CC(=O)NCc1nc2c(c(-c3ccc(OC(F)(F)F)cc3)n1)OCC2 [Compound 13, N-[[4-[4-(trifluoromethoxy)phenyl]-6,7-dihydrofuro[3,2-d]pyrimidin-2-yl]methyl]prop-2-enamide] |
| 24 | 37 | 37 | 51 | C=CC(=O)NCc1cc(-c2ccc(OC(F)(F)F)cc2)c2ncccc2c1C#N [Compound 16, N-[[5-cyano-8-[4-(trifluoromethoxy)phenyl]-6-quinolyl]methyl]prop-2-enamide] |
| 140 | 510 | 180 | 62 | C=CC(=O)NCc1cc(-c2ccc(OC(F)(F)F)cc2)c2nccn2c1CC [Compound 26, N-((5-ethyl-8-(4-(trifluoromethoxy)phenyl)imidazo[1,2-a]pyridin-6-yl)methyl)acrylamide] |
| 190 | 3600 | 62 | 59 | C=CC(=O)NCc1cc(-c2ccc(OC(F)(F)F)cc2)c2ncn(C)c2c1Cc1cn[nH]c1 [Compound 34, N-[[3-methyl-4-(1H-pyrazol-4-ylmethyl)-7-[4-(trifluoromethoxy)phenyl]benzimidazol-5-yl]methyl]prop-2-enamide] |
| 11 | 790 | 330 | 730 | C=CC(=O)NCc1nc(-c2ccc(OC(F)(F)F)cc2)c2nc(C)sc2n1 [Compound 35, N-[[2-methyl-7-[4-(trifluoromethoxy)phenyl]thiazolo[5,4-d]pyrimidin-5-yl]methyl]prop-2-enamide] |
| 100 | 230 | 82 | 960 | C=CC(=O)NCc1cc(-c2ccc(OC(F)(F)F)cc2)c2nccn2c1 [Compound 37, N-[[8-[4-(trifluoromethoxy)phenyl]imidazo[1,2-a]pyridin-6-yl]methyl]prop-2-enamide] |
